The test system of this test is Jurkat cells. Briefly: Jurkat cell proliferation, compound alone or in combination with bleomycin, living cells counted by the MTS method. In kind it is cell-based. The note with it: 36 hours; for Activity (enhancement of the inhibitory effect of bleomycin on cell proliferation): Jurkat cells, combined with bleomycin 5 μg/ml or 10 μg/ml, survival rate vs DMSO control. The protocol:
By using these compounds, effects on proliferation of Jurkat cells by sole administration and inhibitory effects on cell proliferation by administration in combination with bleomycin were examined. Materials and methods are as follows. Jurkat cells obtained from Dainippon Pharmaceutical Co. Ltd. were inoculated at about 10,000 cells per well in a 96 well culture plate, and incubated in 10% bovine fetal serum (Irvine Scientific) supplemented with RPMI1640(ICN) medium in 5% CO2 incubator at 37° C. […] 36 hours after the incubation, the number of living cells was counted by the MTS method.
More specifically, 20 μl of CellTiter96™ AQueous One Solution (Promega) was added per one well, and after the cells were incubated for additional one hour, an absorbance at 490 nm was measured by using a microplate reader. The same culture added with DMSO as a solvent at final concentration of 0.25% was used as a control. The number of cells in the control was considered as 100% survival rate, and for each compound, survival rates by sole administration or a combined administration were calculated. […] In the table, ++ indicates observation of remarkable enhancement, + indicates moderated enhancement, and ± indicates weak enhancement.

In the case of `O=C(Nc1cc2ccc(O)cc2oc1=O)c1ccccc1` [Compound 1, N-(7-hydroxy-2-oxo-2H-1-benzopyran-3-yl)benzamide], the “Activity (enhancement of the inhibitory effect of bleomycin on cell proliferation)” value is recorded as “±”.
As to `O=C(Nc1cc2ccc(O)cc2oc1=O)c1ccccc1Cl` [Compound 2, 2-chloro-N-(7-hydroxy-2-oxo-2H-1-benzopyran-3-yl)benzamide], the “Activity (enhancement of the inhibitory effect of bleomycin on cell proliferation)” value is “+”.
For the molecule `O=C(Nc1cc2ccc(O)cc2oc1=O)c1cccc(Cl)c1` [Compound 3, 3-chloro-N-(7-hydroxy-2-oxo-2H-1-benzopyran-3-yl)benzamide], the “Activity (enhancement of the inhibitory effect of bleomycin on cell proliferation)” value is “+”.
With `O=C(Nc1cc2ccc(O)cc2oc1=O)c1cccc(Br)c1` [Compound 4, 3-bromo-N-(7-hydroxy-2-oxo-2H-1-benzopyran-3-yl)benzamide], the “Activity (enhancement of the inhibitory effect of bleomycin on cell proliferation)” value was “+”.
The same measure, in the same setting: for `O=C(Nc1cc2ccc(O)cc2oc1=O)c1ccc(Cl)cc1` [Compound 5, 4-chloro-N-(7-hydroxy-2-oxo-2H-1-benzopyran-3-yl)benzamide] the value was “±”; for `O=C(Nc1cc2ccc(O)cc2oc1=O)c1ccc(F)cc1` [Compound 6, 4-fluoro-N-(7-hydroxy-2-oxo-2H-1-benzopyran-3-yl)benzamide], “±”.
On the same count and under the same terms, under `Cc1ccccc1C(=O)Nc1cc2ccc(O)cc2oc1=O` [Compound 8, N-(7-hydroxy-2-oxo-2H-1-benzopyran-3-yl)-2-methylbenzamide] stands “+”; under `O=C(Nc1cc2ccc(O)cc2oc1=O)c1ccc(C(F)(F)F)cc1` [Compound 13, N-(7-hydroxy-2-oxo-2H-1-benzopyran-3-yl)-4-(trifluoromethyl)benzamide], “+”.
The same measure, in the same setting: for `O=C(Nc1cc2ccc(O)cc2oc1=O)c1ccc(-c2ccccc2)cc1` [Compound 14, N-(7-hydroxy-2-oxo-2H-1-benzopyran-3-yl)-[1,1′-biphenyl]-4-carboxamide] the value was “++”; for `COc1ccccc1C(=O)Nc1cc2ccc(O)cc2oc1=O` [Compound 15, N-(7-hydroxy-2-oxo-2H-1-benzopyran-3-yl)-2-methoxybenzamide], “±”; for `COc1cccc(C(=O)Nc2cc3ccc(O)cc3oc2=O)c1` [Compound 16, N-(7-hydroxy-2-oxo-2H-1-benzopyran-3-yl)-3-methoxybenzamide], “±”.
Turning to `O=C(Nc1cc2ccc(O)cc2oc1=O)c1ccc([N+](=O)[O-])cc1` [Compound 20, N-(7-hydroxy-2-oxo-2H-1-benzopyran-3-yl)-4-nitrobenzamide], the “Activity (enhancement of the inhibitory effect of bleomycin on cell proliferation)” value is on record as “±”.
`COC(=O)c1ccc(C(=O)Nc2cc3ccc(O)cc3oc2=O)cc1` [Compound 21, 4-[[N-(7-hydroxy-2-oxo-2H-1-benzopyran-3-yl)amino]carbonyl]benzoic acid methyl ester]: the “Activity (enhancement of the inhibitory effect of bleomycin on cell proliferation)” value was “±”.
On the same count and under the same terms, for `N#Cc1ccc(C(=O)Nc2cc3ccc(O)cc3oc2=O)cc1` [Compound 22, 4-cyano-N-(7-hydroxy-2-oxo-2H-1-benzopyran-3-yl)benzamide] the value was “+”.
The same measure, in the same setting: for `O=C(Nc1cc2ccc(O)cc2oc1=O)c1cccc2ccccc12` [Compound 23, N-(7-hydroxy-2-oxo-2H-1-benzopyran-3-yl)-1-naphthalenecarboxamide] the value was “+”.
Consider `O=C(Nc1cc2ccc(O)cc2oc1=O)c1ccc2ccccc2c1` [Compound 24, N-(7-hydroxy-2-oxo-2H-1-benzopyran-3-yl)-2-naphthalenecarboxamide], for which the “Activity (enhancement of the inhibitory effect of bleomycin on cell proliferation)” value was “±”.
On the same count and under the same terms, for `O=C(Nc1cc2ccc(O)cc2oc1=O)c1ccco1` [Compound 25, N-(7-hydroxy-2-oxo-2H-1-benzopyran-3-yl)-2-furancarboxamide] the value was “±”.
The same measure, in the same setting: for `O=C(Nc1cc2ccc(O)cc2oc1=O)c1cccs1` [Compound 26, N-(7-hydroxy-2-oxo-2H-1-benzopyran-3-yl)-2-thiophenecarboxamide] the value was “±”.
In the case of `O=C(Nc1cc2ccc(O)cc2oc1=O)c1cccnc1Cl` [Compound 27, 2-chloro-N-(7-hydroxy-2-oxo-2H-1-benzopyran-3-yl)-3-pyridinecarboxamide], the “Activity (enhancement of the inhibitory effect of bleomycin on cell proliferation)” value was “±”.
The same measure, in the same setting: under `O=C(Nc1cc2ccc(O)cc2oc1=O)c1ccc2c(c1)OCO2` [Compound 28, N-(7-hydroxy-2-oxo-2H-1-benzopyran-3-yl)-1,3-benzodioxole-5-carboxamide] stands “±”.
The same measure, in the same setting: for `CC(C)(C)C(=O)Nc1cc2ccc(O)cc2oc1=O` [Compound 29, N-(7-hydroxy-2-oxo-2H-1-benzopyran-3-yl)-2,2-dimethylpropanamide] the value was “±”.
The same measure, in the same setting: under `O=C(Cc1ccccc1)Nc1cc2ccc(O)cc2oc1=O` [Compound 30, N-(7-hydroxy-2-oxo-2H-1-benzopyran-3-yl)benzeneacetamide] stands “+”.
Consider bleomycin [reference compound], for which, where the note is “bleomycin alone at 5 μg/ml or 10 μg/ml, DMSO control = 100% survival”, the “decrease in the survival rates of the Jurkat cells” value lay within 5 to 10%.

For the origin of these results see patent publication US7411076B2, “Coumarin derivative” (Institute of Medicinal Molecular Design, Inc., priority 2002, dated 2008).
